Experimental data reported in patent EP0414533A1, “Use of iodopropargyl esters of alpha-amino acid derivatives as antimicrobial agents” (ROHM AND HAAS COMPANY, priority 1989, dated 1991).
Where two headings read alike, the source gives them in different places.

How the values were obtained:
Rhizoctonia solani (RHI) = experiment: In-vitro plant fungicide test; assay type: cell-based; conditions: Rhizoctonia solani; for inhibition of growth at 0.2 ppm: .2 ppm; for inhibition of growth at 0.4 ppm: .4 ppm; for inhibition of growth at 0.8 ppm: .8 ppm
UST = experiment: In-vitro plant fungicide test; assay type: cell-based; conditions: Table IVb, read-out: % Control at (ppm) indicated UST; for inhibition of growth at 0.2 ppm: .2 ppm; for inhibition of growth at 0.4 ppm: .4 ppm; for inhibition of growth at 0.8 ppm: .8 ppm
Fusarium roseum (FUS) = experiment: In-vitro plant fungicide test; assay type: cell-based; conditions: Fusarium sambucinum; for inhibition of growth at 1.5 ppm: read-out: % Control at (ppm) indicated FUS, 1.5 ppm; for inhibition of growth at 3 ppm: read-out: % Control at (ppm) indicated FUS, 3 ppm; for inhibition of growth at 6 ppm: read-out: % Control at (ppm) indicated FUS, 6 ppm; for inhibition of growth at 12 ppm: read-out: % Control at (ppm) indicated FUS, 12 ppm; for inhibition of growth at 0.2 ppm: read-out: % Control at (ppm) indicated FUS, .2 ppm; for inhibition of growth at 0.4 ppm: read-out: % Control at (ppm) indicated FUS, .4 ppm; for inhibition of growth at 0.8 ppm: read-out: % Control at (ppm) indicated FUS, .8 ppm
CER = experiment: In-vitro plant fungicide test; assay type: cell-based; conditions: Table IVb, read-out: % Control at (ppm) indicated CER; for inhibition of growth at 0.2 ppm: .2 ppm; for inhibition of growth at 0.4 ppm: .4 ppm; for inhibition of growth at 0.8 ppm: .8 ppm
[1] = tested on: Cochliobolus sativus (HEL); experiment: In-vitro plant fungicide test; assay type: cell-based; conditions: Bipolaris sorokiniana; for inhibition of growth at 0.2 ppm: .2 ppm; for inhibition of growth at 0.4 ppm: .4 ppm; for inhibition of growth at 0.8 ppm: .8 ppm
[2] = tested on: Phytophthora capsici (PHY); experiment: In-vitro plant fungicide test; assay type: cell-based; conditions: Phytophthora capsici; for inhibition of growth at 0.2 ppm: .2 ppm; for inhibition of growth at 0.4 ppm: .4 ppm; for inhibition of growth at 0.8 ppm: .8 ppm
7 FUNGI = experiment: Microbicides broad spectrum secondary test against 7 fungi (Table V); assay type: cell-based; design: key: 1= no growth; 0= growth of the indicated fungi at dose indicated in ppm; conditions: Mycophile agar, pH 5.0; for ANIG growth: Aspergillus niger; for APUL growth: Aureobasidium pullulans; for CRES growth: Cladosporium resinae; for GTRA growth: Gloeophyllum trabeum; for PFUN growth: Penicillium funiculosum; for RRUB growth: Rhodotorula rubra; for SSER growth: Sacharomyces cerevisiae
Description: In the case of fungi, the spores are harvested by pipetting water onto the slant and dislodging the spores with a sterile loop. The cell/spore suspension is standardized by controlling incubation time, temperature, and the volume of the diluent. The suspension is then used to inoculate the vessels containing the broth compound. […] The results of the minimum inhibitory concentration (MIC) tests of compounds of this invention are shown in Tables IIIa IIIb, IIIc, V, VI, VII, and VIII against the microorganisms shown in Table IX. [table]

[3] = tested on: Pseudomonas fluorescens (PSFL); experiment: Minimum inhibitory concentration (MIC), broth two-fold serial dilution test; conditions: Pseudomonas fluorescens, IIIB, read-out: MIC (G-) PSFL, trypticase soy broth (complex media); Table IIIb
Description: (§1) When the test is ready to be done, each vessel in the dilution series, except the first vessel, contains an equal volume of compound free broth. The first vessel contains twice the volume of broth with the starting concentration of test compound. One half of the broth from the first vessel is transferred to the second vessel. After being mixed, one half the resulting volume is removed from the second vessel and transferred to the third vessel. The entire cycle is repeated sufficiently to give a series of concentrations amounting to 500, 250, 125, 63, 31, 16, 8, and 4 ppm (or 100, 50, 25, 12.5, 6.2, 3.1, 1.6, and 0.8), respectively.
(§2) Each vessel is then inoculated with a cell suspension of the appropriate test organism. Bacteria are grown in broth, fungi on agar slants for a time and at a temperature appropriate to the species being tested, and algae are a mixture of green algae and blue-green bacteria grown in a nutrient media. At the end of the growth period, in the case of bacteria, the broth is vortexed to disperse the cells.
(§3) The vessels are then incubated at the appropriate temperature. After the incubation, the vessels are examined for growth/no growth.

[4] = tested on: Pseudomonas aerugenosa (PSAE); experiment: as above; conditions: Pseudomonas, IIIB, read-out: MIC (G-) PSAE, trypticase soy broth (complex media); Table IIIb
Description: as §1, §2, §3

[5] = Table IVb, read-out: % Control at (ppm) indicated RHI
[6] = Table IVa, read-out: % Control at 25 ppm RHI
[7] = read-out: % Control at 25 ppm FUS, 25 ppm, Table IVa, *=Phytotoxic
[8] = read-out: % Control at (ppm) indicated FUS, 25 ppm, Table IVb
[9] = Table IVb, read-out: % Control at (ppm) indicated HEL
[10] = Table IVa, *=Phytotoxic, read-out: % Control at 25 ppm HEL
[11] = Table IVb, read-out: % Control at (ppm) indicated PHY
[12] = Table IVa, read-out: % Control at 25 ppm PHY

CC(C)(C)OC(=O)NCC(=O)OCC#CI [Compound 1, N-t-butoxycarbonylglycine iodopropargyl ester]
100%: inhibition of growth at 1.5 ppm (Rhizoctonia solani (RHI); [5]) | inhibition of growth at 6 ppm (Rhizoctonia solani (RHI); [5]) | inhibition of growth at 25 ppm (Rhizoctonia solani (RHI); [6]) | inhibition of growth at 25 ppm (Rhizoctonia solani (RHI); [5]) | inhibition of growth at 0.8 ppm (Rhizoctonia solani (RHI); [5]) | inhibition of growth at 1.5 ppm (UST) | inhibition of growth at 3 ppm (UST) | inhibition of growth at 6 ppm (UST) | inhibition of growth at 12 ppm (UST) | inhibition of growth at 25 ppm (UST) | inhibition of growth at 25 ppm (Fusarium roseum (FUS); [7]) | inhibition of growth at 6 ppm (Fusarium roseum (FUS); Table IVb) | inhibition of growth at 12 ppm (Fusarium roseum (FUS); Table IVb) | inhibition of growth at 25 ppm (Fusarium roseum (FUS); [8]) | inhibition of growth at 6 ppm (CER; 6 ppm) | inhibition of growth at 25 ppm (CER) | inhibition of growth at 25 ppm [1, 10] | inhibition of growth at 25 ppm [1, 9] | inhibition of growth at 6 ppm [2, 11] | inhibition of growth at 25 ppm [2, 12] | inhibition of growth at 25 ppm [2, 11]
0: ANIG growth (7 FUNGI; 0.2 PPM) | ANIG growth (7 FUNGI; 1 PPM) | APUL growth (7 FUNGI; 0.2 PPM) | APUL growth (7 FUNGI; 1 PPM) | APUL growth (7 FUNGI; 5 PPM) | CRES growth (7 FUNGI; 0.2 PPM) | CRES growth (7 FUNGI; 1 PPM) | CRES growth (7 FUNGI; 5 PPM) | GTRA growth (7 FUNGI; 0.2 PPM) | PFUN growth (7 FUNGI; 0.2 PPM) | PFUN growth (7 FUNGI; 1 PPM) | PFUN growth (7 FUNGI; 5 PPM) | RRUB growth (7 FUNGI; 0.2 PPM) | RRUB growth (7 FUNGI; 1 PPM) | RRUB growth (7 FUNGI; 5 PPM) | SSER growth (7 FUNGI; 0.2 PPM) | SSER growth (7 FUNGI; 1 PPM) | SSER growth (7 FUNGI; 5 PPM)
75%: inhibition of growth at 0.4 ppm (Rhizoctonia solani (RHI); [5]) | inhibition of growth at 3 ppm (Fusarium roseum (FUS); Table IVb) | inhibition of growth at 6 ppm [1, 9]
1: ANIG growth (7 FUNGI; 5 PPM) | ANIG growth (7 FUNGI; 25 PPM) | APUL growth (7 FUNGI; 25 PPM) | CRES growth (7 FUNGI; 25 PPM) | GTRA growth (7 FUNGI; 1 PPM) | GTRA growth (7 FUNGI; 5 PPM) | GTRA growth (7 FUNGI; 25 PPM) | PFUN growth (7 FUNGI; 25 PPM) | RRUB growth (7 FUNGI; 25 PPM) | SSER growth (7 FUNGI; 25 PPM)
50%: inhibition of growth at 0.8 ppm (UST) | inhibition of growth at 1.5 ppm [2, 11]
0%: inhibition of growth at 0.2 ppm (Rhizoctonia solani (RHI); [5]) | inhibition of growth at 0.2 ppm (UST) | inhibition of growth at 0.4 ppm (UST) | inhibition of growth at 1.5 ppm (Fusarium roseum (FUS); Table IVb) | inhibition of growth at 0.2 ppm (Fusarium roseum (FUS); Table IVb) | inhibition of growth at 0.4 ppm (Fusarium roseum (FUS); Table IVb) | inhibition of growth at 0.8 ppm (Fusarium roseum (FUS); Table IVb) | inhibition of growth at 1.5 ppm (CER) | inhibition of growth at 0.2 ppm (CER) | inhibition of growth at 0.4 ppm (CER) | inhibition of growth at 0.8 ppm (CER) | inhibition of growth at 1.5 ppm [1, 9] | inhibition of growth at 0.2 ppm [1, 9] | inhibition of growth at 0.4 ppm [1, 9] | inhibition of growth at 0.8 ppm [1, 9] | inhibition of growth at 0.2 ppm [2, 11] | inhibition of growth at 0.4 ppm [2, 11] | inhibition of growth at 0.8 ppm [2, 11]

O=C(CN1C(=O)c2ccccc2C1=O)OCC#CI [Compound 30, N-phthaloylglycine iodopropargyl ester]
90%: inhibition of growth at 25 ppm (Rhizoctonia solani (RHI); [6])
0%: inhibition of growth at 1.5 ppm (Rhizoctonia solani (RHI); [5]) | inhibition of growth at 0.2 ppm (Rhizoctonia solani (RHI); [5]) | inhibition of growth at 0.4 ppm (Rhizoctonia solani (RHI); [5]) | inhibition of growth at 0.8 ppm (Rhizoctonia solani (RHI); [5]) | inhibition of growth at 1.5 ppm (UST) | inhibition of growth at 3 ppm (UST) | inhibition of growth at 6 ppm (UST) | inhibition of growth at 12 ppm (UST) | inhibition of growth at 25 ppm (UST) | inhibition of growth at 0.2 ppm (UST) | inhibition of growth at 0.4 ppm (UST) | inhibition of growth at 0.8 ppm (UST) | inhibition of growth at 1.5 ppm (Fusarium roseum (FUS); Table IVb) | inhibition of growth at 0.2 ppm (Fusarium roseum (FUS); Table IVb) | inhibition of growth at 0.4 ppm (Fusarium roseum (FUS); Table IVb) | inhibition of growth at 0.8 ppm (Fusarium roseum (FUS); Table IVb) | inhibition of growth at 1.5 ppm (CER) | inhibition of growth at 0.2 ppm (CER) | inhibition of growth at 0.4 ppm (CER) | inhibition of growth at 0.8 ppm (CER) | inhibition of growth at 1.5 ppm [1, 9] | inhibition of growth at 0.2 ppm [1, 9] | inhibition of growth at 0.4 ppm [1, 9] | inhibition of growth at 0.8 ppm [1, 9] | inhibition of growth at 0.2 ppm [2, 11] | inhibition of growth at 0.4 ppm [2, 11] | inhibition of growth at 0.8 ppm [2, 11]
> 250 µg/mL: MIC [3] | MIC [4]
100%: inhibition of growth at 6 ppm (Rhizoctonia solani (RHI); [5]) | inhibition of growth at 25 ppm (Rhizoctonia solani (RHI); [5]) | inhibition of growth at 25 ppm (Fusarium roseum (FUS); [7]) | inhibition of growth at 3 ppm (Fusarium roseum (FUS); Table IVb) | inhibition of growth at 6 ppm (Fusarium roseum (FUS); Table IVb) | inhibition of growth at 12 ppm (Fusarium roseum (FUS); Table IVb) | inhibition of growth at 25 ppm (Fusarium roseum (FUS); [8]) | inhibition of growth at 25 ppm (CER) | inhibition of growth at 6 ppm [1, 9] | inhibition of growth at 25 ppm [1, 10] | inhibition of growth at 25 ppm [1, 9] | inhibition of growth at 1.5 ppm [2, 11] | inhibition of growth at 6 ppm [2, 11] | inhibition of growth at 25 ppm [2, 12] | inhibition of growth at 25 ppm [2, 11]
